Results from the NIST ThermoML archive (doi:10.1021/je700411p).

Tests used:
[1] = Liquid; for mass density: 298.15 K, 101.33 kPa
[2] = refractive index (Na D-line) (dimensionless); details: 298.15 K; 101.33 kPa; Liquid; Standard Abbe refractometry

CC(=O)O [acetic acid]
Details | mass density [kg/m3] | refractive index
[1] | 1043.9 | –
[2] | – | 1.3696

[1], Ebulliometric method (Recirculating still)
Details | vapor or sublimation pressure [kPa]
328.56 K | 9.98
330.65 K | 10.97
332.65 K | 11.98
336.23 K | 13.97
339.41 K | 15.97
342.25 K | 17.98
344.81 K | 19.98
347.19 K | 21.98
349.4 K | 23.98
352.43 K | 26.97
355.18 K | 29.96
357.72 K | 32.98
360.09 K | 35.94
362.26 K | 38.96
365 K | 42.93
366.3 K | 44.95
369.3 K | 49.94
372.09 K | 54.93
374.63 K | 59.83
377.03 K | 64.87
379.25 K | 69.84
381.39 K | 74.82
383.35 K | 79.71
385.23 K | 84.52
387.1 K | 89.81
388.77 K | 94.52
390.91 K | 101.3

CCCCOC(C)=O [butyl ethanoate]
Details | mass density [kg/m3] | refractive index
[1] | 876.02 | –
[2] | – | 1.3916

[1], Ebulliometric method (Recirculating still)
Details | vapor or sublimation pressure [kPa]
334.36 K | 9.99
336.53 K | 10.98
338.56 K | 11.99
342.2 K | 13.97
345.47 K | 15.99
348.37 K | 17.97
351.02 K | 19.98
353.45 K | 21.97
355.72 K | 23.97
357.84 K | 25.98
359.79 K | 27.92
362.58 K | 30.98
365.1 K | 33.92
367.5 K | 36.96
369.74 K | 39.97
373.18 K | 44.92
376.31 K | 49.9
379.18 K | 54.92
381.89 K | 59.93
384.4 K | 64.95
386.74 K | 69.92
388.96 K | 74.95
391.05 K | 79.91
393.02 K | 84.83
394.94 K | 89.87
396.72 K | 94.73
399.05 K | 101.3

CCCCO [butan-1-ol]
Details | mass density [kg/m3] | refractive index
[1] | 805.6 | –
[2] | – | 1.396

Details | vapor or sublimation pressure [kPa]
[1], 390.46 K | 101.3
